# Source: paper PMC10053710, “Influence of Lipidation Pattern of the KR12 Fragment of Peptide LL-37 on Its Antibacterial and Hemolytic Activities” (International Journal of Molecular Sciences, 2023)
# Read-outs that look alike come from different tables or passages of the source. Where a SMILES comes first, the peptide text is derived from it. Where no end group is shown, it is not given here. The star is where a group is joined. Deoxycholoyl = C[C@H](CCC(=O)*)[C@H]1CC[C@H]2[C@@H]3CC[C@@H]4C[C@H](O)CC[C@]4(C)[C@H]3C[C@H](O)[C@]12C; Hydrocinnamoyl = O=C(CCc1ccccc1)*; Octanoyl = CCCCCCCC(=O)*; X4 = O=C(/C=C/c1ccccc1)*; PhAc = O=C(Cc1ccccc1)*; Bz = O=C(c1ccccc1)*
# Legend:
# [1] = test system: Enterococcus faecium ATCC 700221; format: cell-based
# Protocol: (§1) Tests of the antibacterial activity were carried out as we just described. Briefly, for assays, the following strains of ESKAPE bacteria were chosen: Acinetobacter baumannii ATCC BAA-1605, Enterococcus faecium ATCC 700221, Klebsiella aerogenes ATCC 13048 (formerly Enterobacter aerogenes), Klebsiella pneumoniae ATCC 700603, and Pseudomonas aeruginosa ATCC 9027. Moreover, the reference strains of Staphylococcus aureus were used: S. aureus ATCC 25923, S. aureus ATCC 6538, S. aureus ATCC 33591 (MRSA), S. aureus ATCC 9144, and S. aureus ATCC 12598. Before experiments, all the strains were stored at −80 °C in Roti®-Store cryo vials (Carl Roth GmbH, Karlsruhe, Germany). To evaluate the activity of the compounds, bacteria were transferred into fresh Mueller–Hinton medium (Becton Dickinson, Warszawa, Poland) and incubated for 24 h at 37 °C. In the next step, bacterial inoculums were seeded on Mueller–Hinton agar plates (BioMaxima SA, Lublin, Poland) and incubated again for 24 h. The MIC values were determined using the broth microdilution method according to the Clinical and Laboratory Standards Institute Protocol. The initial inoculums of bacteria (0.5 × 10^5 colony forming units (CFU)/mL) prepared in Mueller–Hinton broth were exposed to the ranging concentrations of peptides (1–512 µg/mL). The experiments were conducted on 96-well microtiter plates, with a final volume of 100 µL. The inoculum densities were checked spectrophotometrically (Multiskan™ GO Microplate Spectrophotometer, Thermo Scientific, Waltham, MA, USA) at 600 nm. The results were read after incubation for 18 h at 37 °C. The MIC values were the lowest concentration at which a visible growth of microorganisms was inhibited. All experiments were conducted in triplicate. Moreover, positive (growth) and negative (sterility) controls were included.
# [2] = test system: Klebsiella aerogenes ATCC 13048; format: cell-based
# Protocol: as §1
# [3] = test system: Klebsiella pneumoniae ATCC 700603; format: cell-based
# Protocol: as §1
# [4] = test system: Pseudomonas aeruginosa ATCC 9027; format: cell-based
# Protocol: as §1
# S. aureus ATCC 12598 = format: cell-based, Staphylococcus aureus
# Protocol: as §1
# S. aureus ATCC 25923 = format: cell-based, Staphylococcus aureus
# Protocol: as §1
# [5] = test system: S. aureus ATCC 33591 (MRSA); format: cell-based, Staphylococcus aureus
# Protocol: as §1
# S. aureus ATCC 6538 = format: cell-based, Staphylococcus aureus
# Protocol: as §1
# S. aureus ATCC 9144 = format: cell-based, Staphylococcus aureus
# Protocol: as §1
# [6] = test system: human red blood cells (hRBCs); test: Hemolysis assay; conditions: 4% (v/v) erythrocytes in PBS, peptides 1–512 µg/mL, 1 h at 37 °C, hemoglobin at 540 nm
# Protocol: To facilitate a comparison of hemolytic activity between the analogs, MHC5 values were determined. MHC5 is the minimum hemolytic concentration of the compounds that caused the 5% hemolysis of hRBCs.
# Briefly, the fresh hRBCs with EDTA as anticoagulant were rinsed three times with PBS through centrifugation at 800× g for 10 min and resuspended in PBS. The serial dilution of peptides (1–512 µg/mL) was prepared in PBS on 96-well plates. Then, the stock RBCs solution was added to the plates to reach a final volume of 100 µL with a 4% concentration of erythrocytes (v/v). The control wells for 0 (RBCs in PBS) and 100% (RBCs in 1% Triton-X 100) hemolysis were also prepared. Then, the plates were incubated for 1 h at 37 °C and centrifuged at 800× g for 10 min at 4 °C (Sorvall ST 16R Centrifuge, Thermo Scientific, Waltham, MA, USA). After centrifugation, the supernatant was carefully transferred to new microtiter plates and the release of hemoglobin was measured at 540 nm (Multiskan™ GO Microplate Spectrophotometer, Thermo Scientific, Waltham, MA, USA). The percentage of hemolysis was calculated based on wells with 100% hemolysis.
# [7] = Mueller–Hinton broth, 0.5 × 10^5 CFU/mL, peptides 1–512 µg/mL, 18 h at 37 °C, triplicate
# [8] = MRSA, Mueller–Hinton broth, 0.5 × 10^5 CFU/mL, peptides 1–512 µg/mL, 18 h at 37 °C, triplicate
# [9] = 100% = 1% Triton-X 100, ≥ means less than 5% hemolysis up to 512 µg/mL
# [10] = fresh batch of blood (footnote a)
Molecule,MIC A. baumannii [7],"MHC5 (minimum hemolytic concentration causing 5% hemolysis of hRBCs) [6, 9]","MIC E. faecium ([1]; ATCC 700221, 18 h)","MIC K. aerogenes ([2]; ATCC 13048, 18 h)","MIC K. pneumoniae ([3]; ATCC 700603, 18 h)","MIC P. aeruginosa ([4]; ATCC 9027, 18 h)","MIC S. aureus 12598 (S. aureus ATCC 12598; ATCC 12598, 18 h)","MIC S. aureus 25923 (S. aureus ATCC 25923; ATCC 25923, 18 h)","MIC S. aureus 33591 ([5]; ATCC 33591, 18 h)","MIC S. aureus 6538 (S. aureus ATCC 6538; ATCC 6538, 18 h)","MIC S. aureus 9144 (S. aureus ATCC 9144; ATCC 9144, 18 h)",MIC A. baumannii (18 h),other results
"CC[C@H](C)[C@H](NC(=O)[C@H](CCCNC(=N)N)NC(=O)[C@H](CCC(N)=O)NC(=O)[C@@H](NC(=O)[C@@H](NC(=O)[C@H](CCCNC(=N)N)NC(=O)[C@H](CCCCN)NC(=O)c1ccccc1)[C@@H](C)CC)C(C)C)C(=O)N[C@@H](CCCCN)C(=O)N[C@@H](CC(=O)O)C(=O)N[C@@H](Cc1ccccc1)C(=O)N[C@@H](CC(C)C)C(=O)N[C@@H](CCCNC(=N)N)C(N)=O [XV, Benzoic acid-KR12-NH2] (Bz-KRIVQRIKDFLR-NH2)",32 µg/mL,≥512 µg/mL,–,–,–,–,–,–,–,–,–,–,"MIC E. faecium [1, 7]: 8 µg/mL; MIC K. aerogenes [2, 7]: 64 µg/mL; MIC K. pneumoniae [3, 7]: 64 µg/mL; MIC P. aeruginosa [4, 7]: 128 µg/mL; MIC S. aureus 12598 (S. aureus ATCC 12598; [7]): 32 µg/mL; MIC S. aureus 25923 (S. aureus ATCC 25923; [7]): 64 µg/mL; MIC S. aureus 33591 [5, 8]: 64 µg/mL; MIC S. aureus 6538 (S. aureus ATCC 6538; [7]): 8 µg/mL; MIC S. aureus 9144 (S. aureus ATCC 9144; [7]): 32 µg/mL"
"CC[C@H](C)[C@H](NC(=O)[C@H](CCCNC(=N)N)NC(=O)[C@H](CCC(N)=O)NC(=O)[C@@H](NC(=O)[C@@H](NC(=O)[C@H](CCCNC(=N)N)NC(=O)[C@H](CCCCN)NC(=O)Cc1ccccc1)[C@@H](C)CC)C(C)C)C(=O)N[C@@H](CCCCN)C(=O)N[C@@H](CC(=O)O)C(=O)N[C@@H](Cc1ccccc1)C(=O)N[C@@H](CC(C)C)C(=O)N[C@@H](CCCNC(=N)N)C(N)=O [XVI, Phenylacetic acid-KR12-NH2] (PhAc-KRIVQRIKDFLR-NH2)",32 µg/mL,256 µg/mL,–,–,–,–,–,–,–,–,–,–,"MIC E. faecium [1, 7]: 8 µg/mL; MIC K. aerogenes [2, 7]: 64 µg/mL; MIC K. pneumoniae [3, 7]: 64 µg/mL; MIC P. aeruginosa [4, 7]: 128 µg/mL; MIC S. aureus 12598 (S. aureus ATCC 12598; [7]): 32 µg/mL; MIC S. aureus 25923 (S. aureus ATCC 25923; [7]): 128 µg/mL; MIC S. aureus 33591 [5, 8]: 64 µg/mL; MIC S. aureus 6538 (S. aureus ATCC 6538; [7]): 16 µg/mL; MIC S. aureus 9144 (S. aureus ATCC 9144; [7]): 32 µg/mL"
"CC[C@H](C)[C@H](NC(=O)[C@H](CCCNC(=N)N)NC(=O)[C@H](CCC(N)=O)NC(=O)[C@@H](NC(=O)[C@@H](NC(=O)[C@H](CCCNC(=N)N)NC(=O)[C@H](CCCCN)NC(=O)/C=C/c1ccccc1)[C@@H](C)CC)C(C)C)C(=O)N[C@@H](CCCCN)C(=O)N[C@@H](CC(=O)O)C(=O)N[C@@H](Cc1ccccc1)C(=O)N[C@@H](CC(C)C)C(=O)N[C@@H](CCCNC(=N)N)C(N)=O [XIX, trans-cinnamic acid-KR12-NH2] (X4-KRIVQRIKDFLR-NH2)",–,–,4 µg/mL,16 µg/mL,16 µg/mL,32 µg/mL,16 µg/mL,16 µg/mL,8 µg/mL,16 µg/mL,4 µg/mL,8 µg/mL,"MHC5 (minimum hemolytic concentration causing 5% hemolysis of hRBCs) [6, 10]: 128 ^a µg/mL"
"CC[C@H](C)[C@H](NC(=O)[C@H](CCCNC(=N)N)NC(=O)[C@H](CCC(N)=O)NC(=O)[C@@H](NC(=O)[C@@H](NC(=O)[C@H](CCCNC(=N)N)NC(=O)[C@H](CCCCN)NC(=O)CCc1ccccc1)[C@@H](C)CC)C(C)C)C(=O)N[C@@H](CCCCN)C(=O)N[C@@H](CC(=O)O)C(=O)N[C@@H](Cc1ccccc1)C(=O)N[C@@H](CC(C)C)C(=O)N[C@@H](CCCNC(=N)N)C(N)=O [XVII, 3-Phenylpropionic acid-KR12-NH2] (Hydrocinnamoyl-KRIVQRIKDFLR-NH2)",–,256 µg/mL,4 µg/mL,64 µg/mL,32 µg/mL,64 µg/mL,16 µg/mL,16 µg/mL,32 µg/mL,8 µg/mL,16 µg/mL,32 µg/mL,–
"KRIVQRIKDFLR-NH2 [I, KR12-NH2]",–,≥512 µg/mL,128 µg/mL,>512 µg/mL,>512 µg/mL,128 µg/mL,>512 µg/mL,>512 µg/mL,>512 µg/mL,512 µg/mL,>512 µg/mL,256 µg/mL,–
"CCCCCCCC(=O)N[C@@H](CCCCN)C(=O)N[C@@H](CCCCN)C(=O)N[C@@H](CCCNC(=N)N)C(=O)N[C@H](C(=O)N[C@H](C(=O)N[C@@H](CCC(N)=O)C(=O)N[C@@H](CCCNC(=N)N)C(=O)N[C@H](C(=O)N[C@@H](CCCCN)C(=O)N[C@@H](CC(=O)O)C(=O)N[C@@H](Cc1ccccc1)C(=O)N[C@@H](CC(C)C)C(=O)N[C@@H](CCCNC(=N)N)C(N)=O)[C@@H](C)CC)C(C)C)[C@@H](C)CC [IV, C8^α-Lys-KR12-NH2] (Octanoyl-KKRIVQRIKDFLR-NH2)",–,256 µg/mL,4 µg/mL,32 µg/mL,16 µg/mL,32 µg/mL,32 µg/mL,128 µg/mL,64 µg/mL,8 µg/mL,16 µg/mL,8 µg/mL,–
"CC[C@H](C)[C@H](NC(=O)[C@H](CCCNC(=N)N)NC(=O)[C@H](CCC(N)=O)NC(=O)[C@@H](NC(=O)[C@@H](NC(=O)[C@H](CCCNC(=N)N)NC(=O)[C@H](CCCCN)NC(=O)CC[C@@H](C)[C@H]1CC[C@H]2[C@@H]3CC[C@@H]4C[C@H](O)CC[C@]4(C)[C@H]3C[C@H](O)[C@]12C)[C@@H](C)CC)C(C)C)C(=O)N[C@@H](CCCCN)C(=O)N[C@@H](CC(=O)O)C(=O)N[C@@H](Cc1ccccc1)C(=O)N[C@@H](CC(C)C)C(=O)N[C@@H](CCCNC(=N)N)C(N)=O [XXII, Deoxycholic acid-KR12-NH2] (Deoxycholoyl-KRIVQRIKDFLR-NH2)",8 µg/mL,–,2 µg/mL,128 µg/mL,64 µg/mL,128 µg/mL,8 µg/mL,32 µg/mL,256 µg/mL,4 µg/mL,8 µg/mL,–,"MHC5 (minimum hemolytic concentration causing 5% hemolysis of hRBCs) [6, 10]: 8 µg/mL"
